Converted amounts (≈) assume the structure as drawn.
Experiments:
[1] = tested on: HEK293; assay: cells; assay type: functional; conditions: Homo sapiens, ATCC CRL1573, HEK293; ASSAY_TEST Inhibition of Cell Viability; detection method Resazurin; Fluorescence (ex560/em590); MEDIA DMEM with 10% FBS; plate type 384well; TC; CORNING #3712; time 18 hr
[2] = tested on: Staphylococcus aureus; assay: microbe, parasite or virus in culture; conditions: ATCC 43300, 18 h, ASSAY_TEST Inhibition of Bacterial Growth, detection method Absorption (OD600), MEDIA CAMHB, plate type 384well, NBS, CORNING #3640
Description: Antibacterial activity against Staphylococcus aureus MRSA ATCC 43300 (CO-ADD:GP_020); MIC in CAMBH media, using NBS plates, by OD(600)

[3] = tested on: Candida albicans; assay: microbe, parasite or virus in culture; conditions: ATCC 90028, ASSAY_TEST Inhibition of Fungal Growth, detection method Absorption (OD530), plate type 384well, NBS, CORNING #3640
Description: Antifungal activity against Candida albicans ATCC 90028 (CO-ADD:FG_001); MIC in YNB media using NBS plates, by OD630

[4] = tested on: Klebsiella pneumoniae; assay: microbe, parasite or virus in culture; conditions: ATCC 700603, 18 h, ASSAY_TEST Inhibition of Bacterial Growth, detection method Absorption (OD600), MEDIA CAMHB, plate type 384well, NBS, CORNING #3640
Description: Antibacterial activity against Klebsiella pneumoniae MDR ATCC 70063 (CO-ADD:GN_003); MIC in CAMBH media using NBS plates, by OD(600)

[5] = tested on: Pseudomonas aeruginosa; assay: microbe, parasite or virus in culture; conditions: ATCC 27853, 18 h, ASSAY_TEST Inhibition of Bacterial Growth, detection method Absorption (OD600), MEDIA CAMHB, plate type 384well, NBS, CORNING #3640
Description: Antibacterial activity against Pseudomonas aeruginosa ATCC 27853 (CO-ADD:GN_042); MIC in CAMBH media using NBS plates, by OD(600)

[6] = tested on: Acinetobacter baumannii; assay: microbe, parasite or virus in culture; conditions: ATCC 19606, 18 h, ASSAY_TEST Inhibition of Bacterial Growth, detection method Absorption (OD600), MEDIA CAMHB, plate type 384well, NBS, CORNING #3640
Description: Antibacterial activity against Acinetobacter baumannii ATCC 19606 (CO-ADD:GN_034); MIC in CAMBH media using NBS plates, by OD600

[7] = tested on: Escherichia coli; assay: microbe, parasite or virus in culture; conditions: ATCC 25922, 18 h, ASSAY_TEST Inhibition of Bacterial Growth, detection method Absorption (OD600), MEDIA CAMHB, plate type 384well, NBS, CORNING #3640
Description: Antibacterial activity against Escherichia coli ATCC 25922 (CO-ADD:GN_001); MIC in CAMBH media using NBS plates, by OD(600)

[8] = tested on: Cryptococcus neoformans
Description: Antifungal activity against Cryptococcus neoformans H99 ATCC 208821 (CO-ADD:FG_002); MIC in YNB media using NBS plates, by Resazurin OD(600-570)

SMILES	CC50 [1] [µM]	MIC [2] [µM]	MIC [3] [µM]	MIC [4] [µM]	MIC [5] [µM]	MIC [6] [µM]	MIC [7] [µM]	MIC [8] [µM]
N#Cc1cn(C2OC(CO)C(O)C2O)c2ncnc(N)c12 (stereo not drawn)	> 10	> 10	0.312 (≈ 0.091 µg/mL)	> 10	> 10	> 10	> 10	> 10
O=c1ccc2nc3ccc(O)cc3oc-2c1	> 10	> 10	> 10	> 10	> 10	> 10	> 10	> 10
COc1cccc2c1C(=O)c1c(O)c3c(c(O)c1C2=O)C[C@@](O)(C(C)=O)C[C@@H]3OC1CC(N)C(O)C(C)O1 (stereo partly drawn)	0.613	5 (≈ 2.64 µg/mL)	> 10	> 10	> 10	> 10	> 10	> 10
CC1Oc2cc3c(-c4c(O)cc(O)c5c(O)c6c(cc45)OC(C)C(C)C6=O)c(O)cc(O)c3c(O)c2C(=O)C1C (stereo not drawn)	5.78	5 (≈ 2.73 µg/mL)	> 10	> 10	> 10	> 10	> 10	> 10
COC1=C2C[C@@H](C)C[C@@H](OC)[C@@H](O)[C@H](C)/C=C(\C)[C@@H](OC(N)=O)[C@H](OC)/C=C\C=C(/C)C(=O)NC(=CC1=O)C2=O	> 10	> 10	> 10	> 10	> 10	> 10	> 10	> 10
CC[C@H](C)c1occ2c(O)c(C(=O)O)c(=O)cc-2c1C	> 10	> 10	> 10	> 10	> 10	> 10	> 10	> 10
C=C(NC(=O)C(=C)NC(=O)c1csc(C2=NC3c4csc(n4)C4NC(=O)c5csc(n5)C(C(C)(O)C(C)O)NC(=O)C5CSC(=N5)/C(=C/C)NC(=O)C(C(C)O)NC(=O)c5csc(n5)C3(CC2)NC(=O)C(C)NC(=O)C(=C)NC(=O)C(=C)NC(=O)C(C(C)C)NC2C=Cc3c(C(C)O)cc(nc3C2O)C(=O)OC4C)n1)C(N)=O (stereo not drawn)	> 10	≤ 0.0781	> 10	> 10	> 10	> 10	> 10	> 10
COc1cc(C)cc2c(-c3c(O)cc(O)c4c3C[C@H](C)N[C@H]4C)cc(-c3cc(-c4c(O)cc(O)c5c4C[C@H](C)N[C@H]5C)c4cc(C)cc(OC)c4c3O)c(O)c12	> 10	> 10	> 10	> 10	> 10	> 10	> 10	> 10
CC1COC2C3=C(C(=O)C=CC3=O)C3OC(=O)C4CC5CCC1C5C2C43 (stereo not drawn)	1.18	–	–	–	–	–	–	–
CC1/C=C/C=C/CC/C=C/C=C/C=C/C=C/C(OC2OC(C)C(O)C(N)C2O)CC2OC(CC(O)C(O)CCC(O)CC(O)CC(O)CC(=O)OC(C)C(C)C1O)CC(O)C2C(=O)O (stereo not drawn)	> 10	> 10	5 (≈ 4.55 µg/mL)	> 10	> 10	> 10	> 10	5 (≈ 4.55 µg/mL)
CC(=O)C(=O)NC1/C=C(C)\C=C/C(O)C/C=C(C)\C=C/C(O)CC2OC(=O)C1(C)C(=O)C2C (stereo not drawn)	> 10	10 (≈ 4.6 µg/mL)	> 10	> 10	> 10	> 10	> 10	> 10
CO[C@H](/C(C)=C/C=C/C(C)=C/c1coc(C)n1)[C@H](C)[C@H]1C[C@@H](O)[C@@]2(C)O[C@H]2/C=C/[C@@H](C)[C@@H]2C[C@@H](CC(=O)O2)C[C@H]2O[C@@H]2C(=O)O1	> 10	> 10	> 10	> 10	> 10	> 10	> 10	1.25 (≈ 0.782 µg/mL)
COc1cc2oc3cc(=O)cc4oc(-c5ccccc5)cc(c2c2c1CCC(c1ccccc1)O2)c43 (stereo not drawn)	> 10	> 10	> 10	> 10	> 10	> 10	> 10	> 10
COC1CC(CC2CCC(C)C(C(C)C(=O)O)O2)OC2(OC(C)(C3CCC(C)(C4OC(C5OC(O)(CO)C(C)CC5C)CC4C)O3)CC2C)C1C (stereo not drawn)	> 10	0.156 (≈ 0.113 µg/mL)	10 (≈ 7.25 µg/mL)	> 10	> 10	> 10	> 10	> 10
N#C[C@H](OC1OC(COC2OC(CO)C(O)C(O)C2O)C(O)C(O)C1O)c1ccccc1 (stereo partly drawn)	> 10	> 10	> 10	> 10	> 10	> 10	> 10	> 10
CSC1SCC2C(=O)N(C)C(C(C)C)C(=O)OCC(NC(=O)c3cnc4ccccc4n3)C(=O)NC(C)C(=O)N(C)C1C(=O)N(C)C(C(C)C)C(=O)OCC(NC(=O)c1cnc3ccccc3n1)C(=O)NC(C)C(=O)N2C (stereo not drawn)	> 10	≤ 0.0781	> 10	> 10	1.25 (≈ 1.38 µg/mL)	> 10	2.5 (≈ 2.75 µg/mL)	2.5 (≈ 2.75 µg/mL)
COC1/C=C/O[C@@]2(C)Oc3c(C)c(O)c4c(O)c(cc(O)c4c3C2=O)NC(=O)/C(C)=C\C=C\[C@H](C)C(O)[C@@H](C)[C@@H](O)[C@@H](C)[C@H](OC(C)=O)[C@@H]1C (stereo partly drawn)	> 10	≤ 0.0781	> 10	> 10	> 10	> 10	> 10	> 10
CC1OC(=O)C(C(C)C)NC(=O)C(C(C)C)OC(=O)C(C(C)C)NC(=O)C(C)OC(=O)C(C(C)C)NC(=O)C(C(C)C)OC(=O)C(C(C)C)NC(=O)C(C)OC(=O)C(C(C)C)NC(=O)C(C(C)C)OC(=O)C(C(C)C)NC1=O (stereo not drawn)	> 10	> 10	0.625 (≈ 0.695 µg/mL)	> 10	> 10	> 10	> 10	> 10
CCC(C(=O)C(C)C(O)C(C)CCc1ccc(C)c(O)c1C(=O)O)C1OC(CC)(C2CCC(O)(CC)C(C)O2)CC1C (stereo not drawn)	> 10	0.312 (≈ 0.185 µg/mL)	> 10	> 10	> 10	> 10	> 10	> 10
C[C@H](N)C(=O)N[C@@H]1[C@H]2C(=C(O)C[C@@H](O)[C@@H]2O)C(=O)O[C@]1(C)C(Cl)Cl [BACTOBOLIN]	0.396	1.25 (≈ 0.479 µg/mL)	> 10	> 10	> 10	> 10	5 (≈ 1.92 µg/mL)	> 10

Reference: ChEMBL document CHEMBL4296183, “CO-ADD screening of NIH NCI Natural Product Set III” (2020)
